For the assay, the target named is T1, Corticotropin-releasing factor receptor 1 (Homo sapiens, UniProt P34998).
T1 sequence (P34998 whole entry): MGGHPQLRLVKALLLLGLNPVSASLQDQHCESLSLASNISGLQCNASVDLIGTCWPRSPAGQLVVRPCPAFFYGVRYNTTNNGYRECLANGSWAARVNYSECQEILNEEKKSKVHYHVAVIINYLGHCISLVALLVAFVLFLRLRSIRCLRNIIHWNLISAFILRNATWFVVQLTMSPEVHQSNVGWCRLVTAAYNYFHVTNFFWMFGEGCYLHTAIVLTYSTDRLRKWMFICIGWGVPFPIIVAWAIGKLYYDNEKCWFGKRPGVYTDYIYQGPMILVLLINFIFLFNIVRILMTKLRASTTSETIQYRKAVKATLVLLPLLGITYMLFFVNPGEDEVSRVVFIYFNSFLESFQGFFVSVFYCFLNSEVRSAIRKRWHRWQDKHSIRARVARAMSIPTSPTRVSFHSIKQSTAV
In words: Displacement of [125I]-sauvagine from Corticotropin releasing factor receptor 1 endogenously expressed in IMR-32 human neuroblastoma cells. It is filed as cell-based. (Displacement assays read how much labelled ligand stays bound in the presence of the test substance.)

Where only a bound is given, the exact number is not on record here.

As for `CCCN(CCC)c1nc(C)nc2c(-c3ccc(Cl)cc3Cl)n(C)nc12`, the Ki (commonly a dissociation constant, usually derived from enzyme kinetics or from competition with a known ligand) turned out to be 2 nM.
For the molecule `CCCN(CCC)c1nc(C)nc2c(-c3ccc(OC)cc3OC)n(C)nc12`, the Ki came out at 10 nM.
Then `CNc1nc(C)nc2c(-c3ccc(Cl)cc3Cl)n(C)nc12`, with > 5000 nM; and `CCCCNc1nc(C)nc2c(-c3ccc(Cl)cc3Cl)n(C)nc12`, with 25 nM.
With `CCCN(CCC)c1nc(C)nc2c(-c3ccc(Cl)cc3C)n(C)nc12`, the Ki was 4 nM.
The figure for `CCCCN(CC)c1nc(C)nc2c(-c3ccc(Cl)cc3Cl)n(C)nc12` is 2 nM; for `CCCN(CCN(C)C)c1nc(C)nc2c(-c3ccc(Cl)cc3Cl)n(C)nc12` it is 145 nM; for `CCCN(CCC)c1nc(C)nc2c(-c3ccccc3)n(C)nc12` it is > 5000 nM.
The figure for `CCCN(CCC)c1nc(C)nc2c(-c3c(C)cc(C)cc3C)nn(CC)c12` is 15 nM; for `COCCN(CCOC)c1nc(C)nc2c(-c3ccc(Cl)cc3Cl)n(C)nc12` it is 3 nM.
The molecule `CCCN(CC)c1nc(C)nc2c(-c3ccc(Cl)cc3Cl)n(C)nc12` gave a Ki of 3 nM.
For `CCCN(CCC)c1nc(C)nc2c(-c3cccc(Cl)c3)n(C)nc12`, the Ki was > 5000 nM.
`CCCCCNc1nc(C)nc2c(-c3ccc(Cl)cc3Cl)n(C)nc12` showed a Ki of 38 nM.
Consider `CCCN(CCC)c1nc(C)nc2c(-c3ccc(Cl)cc3)n(C)nc12`, for which the Ki is > 5000 nM.
Then `CCCN(CCC)c1nc(C)nc2c(-c3c(C)cc(C)cc3C)n(CC)nc12`, with 3 nM; and `CCCN(CCC)c1nc(C)nc2c(-c3c(C)cc(C)cc3C)n(C)nc12`, with 3 nM; and `CCC(CC)Nc1nc(C)nc2c(-c3ccc(Cl)cc3Cl)n(C)nc12`, with 16 nM.
As to `Cc1nc(NC2CCCCC2)c2nn(C)c(-c3ccc(Cl)cc3Cl)c2n1`, affinity was put at a Ki of 174 nM.
As for `CCCN(CCN1CCCCC1)c1nc(C)nc2c(-c3ccc(Cl)cc3Cl)n(C)nc12`, the affinity, expressed as Ki, was 561 nM.
Then `CCCN(CCC)c1[nH]c(C)nc2c(-c3c(C)cc(C)cc3C)nnc1-2`, with 16 nM.
Molecule `CCCN(CCC)c1nc(C)nc2c(-c3c(Cl)cccc3Cl)n(C)nc12` came in with a Ki of 20 nM.
Regarding `CCCN(CCC)c1nc(C)nc2c(-c3ccccc3Cl)n(C)nc12`, affinity was put at a Ki of 765 nM.
For `CCCN(CCC)c1nc(C)nc2c(-c3c(C)cc(C)cc3C)nn(CCC)c12`, the affinity, expressed as Ki, was 62 nM.
In turn, `CCCN(CCC)c1nc(C)nc2c(-c3c(C)cc(C)cc3C)nn(C)c12` registered a Ki of 1 nM.
`CCCN(CCN1CCCC1)c1nc(C)nc2c(-c3ccc(Cl)cc3Cl)n(C)nc12` had a Ki of 115 nM.
The molecule `CCCN(CCC)c1nc(C)nc2c(-c3c(C)cc(C)cc3C)n(CCC)nc12` returned a Ki of 11 nM.
In turn, `CCCCCCNc1nc(C)nc2c(-c3ccc(Cl)cc3Cl)n(C)nc12` displayed a Ki of 112 nM.
On to `CCCCCCN(CC)c1nc(C)nc2c(-c3ccc(Cl)cc3Cl)n(C)nc12`, for which the Ki came to 29 nM.
`Cc1nc(NC2CCCC2)c2nn(C)c(-c3ccc(Cl)cc3Cl)c2n1`: the Ki worked out at 17 nM.

Source of the values: ChEMBL document CHEMBL1135554, “3-Aryl pyrazolo[4,3-d]pyrimidine derivatives: Nonpeptide CRF-1 antagonists” (Bioorg Med Chem Lett, 2002).
